According to US9034645B2, “Methods of identifying inhibitors of gene silencing in mammalian cells” (Oregon Health & Science University, priority 2008, dated 2015):

Experiments:
Format in all cases: cell-based, mouse
Ptet-HPRT in HPRT3 cells = experiment: Relative HPRT expression in Dox exposed cells treated with TSA (qRT-PCR); conditions: 1 μM Dox 7 days, TSA on day 7 (FIG. 6)
Procedure: FIG. 6 is a bar graph showing relative HPRT expression after Dox exposed HPRT3 cells were treated with TSA. The HPRT3 cells expressing Ptet-HPRT were treated with 1 μM Dox for 6 days and on day 7 some cells were exposed to both Dox and TSA (at concentrations shown). RNA was collected at the end of the 7th day and assayed for HPRT levels with qRT-PCR.

[1] = tested on: silenced HPRT allele in H3TG3 cells; experiment: HPRT reversion frequency of TG resistant cells with silenced Ptet-HPRT (HAz selection); conditions: 100 nM TSA and/or 300 nM 5-aza-dC for 24 hours, 24 hour recovery, HAz medium (FIG. 3)
Procedure: Reversion frequencies were determined for a cell line with a silenced HPRT allele after no treatment (Untreated), treatment with 300 nM 5-aza-2′-deoxycytidine (AzaC) for 24 hours, treatment with 100 nM trichostatin A (TSA) for 24 hours, or a combination of 5-Aza-dC and TSA at the same concentrations for 24 hours. Revertant cells were selected with medium containing hypoxanthine and azaserine.
TSA was therefore used as a probe to determine if histone deacetylation played a significant role in the silencing phenotype. […] For this experiment, 1×10^6 cells were plated in a T-75 flask and treated with 100 nM TSA for 24 hours. After an additional 24 hour recovery time, the cells were re-plated in 100 mm dishes (1×10^5 cells per dish) in HAz medium to select for cells that regained HPRT expression. […] For this experiment, the cells were treated identically to those used for the TSA experiment, except they were exposed to 300 nM 5-aza-dC instead.

[2] = tested on: silenced Aprt allele in D3, D7, D3S1 cells; experiment: Aprt mRNA expression in cell lines with silenced Aprt (qRT-PCR); conditions: for increase of Aprt mRNA levels as compared to untreated cells: 300 nM TSA; for Aprt expression / mRNA levels after treatment: D7 cell line; for Aprt expression / mRNA levels after treatment / Aprt expression after treatment: overnight 3 μM 5-aza-dC or 300 nM TSA, 24 hours recovery (FIG. 12)
Procedure: FIG. 12 is a bar graph showing relative Aprt mRNA expression in parental cells with active Aprt expression (H22) and DAP-resistant cell lines with silenced Aprt expression (D7, D3, and D3S1) in untreated cells and cells treated with 3 μM 5-aza-dC or 300 nM TSA. Results are the average of triplicate reactions with error bars indicating the standard deviation.
Total RNA was isolated from cell cultures with the RNeasy® Mini Kit (Qiagen, Valencia, Calif.) according to the manufacturer's instructions. Total RNA samples were converted to cDNA using Quantitect® Reverse Transcription Kit (Qiagen, Valencia, Calif.) with removal of genomic DNA contamination. 100 ng cDNA was used as input in subsequent quantitative-PCR analysis for either Aprt amplification across the exon 2-3 splice site with the sense primer qAprt-F 5′-CTCTTGGCCAGTCACCTGAAG-3′ (SEQ ID NO: 4), the antisense primer qAprt-R 5′-TCTAGACCTGCGATGTAGTCGATCT-3′ (SEQ ID NO: 5) and the TaqMan probe 5′-FAM-CAC GCA CAG CGG C-MGB-3′ (SEQ ID NO: 6) or Gapdh (Mouse TaqMan Endogenous Control, Applied Biosystems) with iQ Supermix (Bio-Rad) and a Bio-Rad iCycler.
Cells were treated overnight (about 16 hours) with media containing 300 nM TSA (Wako USA, Richmond, Va.) to inhibit histone deacetylation, 3 μM 5-aza-dC (Sigma-Aldrich, St. Louis, Mo.) to inhibit DNA methylation, or the combination of 300 nM TSA and 3 μM 5-aza-dC. Cells were allowed to recover 24 hours in DMEM after drug treatment before harvesting for RNA purification.

BRCA1-HPRT in BSH8 cells = experiment: Inhibition of hypoxia-induced silencing of BRCA1-HPRT (TG resistance frequency); conditions: hypoxia two weeks, TSA 24 hours prior to TG selection (FIG. 9)
Procedure: FIG. 9 is a bar graph showing TG resistance frequency for BSH8 cells exposed to normoxia or hypoxia for two weeks and then selected under normoxic conditions with TG. An aliquot of the hypoxia exposed cells was treated with TSA for 24 hours (hypoxia+TSA) prior to TG selection.
Two BRCA1-HPRT cell lines obtained with this approach (BSH2 and BSH8) were exposed to hypoxic conditions (growth in an atmosphere of about 95% nitrogen and 5% oxygen) for two weeks and then exposed to 2.5 μg/ml TG under hypoxic conditions for two additional weeks to select for TG resistant cells. […] Thus, the resistance phenotype became independent of hypoxia.
(§1) To confirm that silencing (as opposed to mutation) was induced by hypoxia exposure, several BRCA1-HRPT TG resistant clones induced by hypoxia were expanded and tested to determine if they could yield revertant cells after exposure to TSA (300 nM) as presented in Example 3 for cells with silenced Ptet-HPRT constructs. […] Consistent with that result, HPRT mRNA was reduced in the TG resistant clones and restored in TSA-induced revertants.

[3] = tested on: BRCA1-HPRT construct (human BRCA1 promoter); experiment: Reversion of hypoxia-induced TG resistant clones containing BRCA1-HPRT; conditions: for TSA-Induced Reversion Frequency: TSA 300 nM; for reversion / reactivation of hypoxia-induced BRCA1-HPRT TG resistant clones: TSA 300 nM (Table 3, FIG. 8), 5-Aza-dC concentration not given
Procedure: FIG. 8 is a bar graph showing reactivation frequency of BSH8 TG resistant clones treated with 300 nM TSA for 16 hours or in the absence of TSA (untreated).
as §1

Ptet-HPRT in HPRT9 cells = experiment: Inhibition of Dox-induced HPRT silencing (TG resistant clones); conditions: 100 nM TSA or 300 nM 5-Aza-dC for the last 24 hours of 7 days 1 μM Dox; TG selection (FIG. 5)
Procedure: FIG. 5 is a series of digital images of dishes of TG resistant HPRT9 cells after various treatments. HPRT9 cells with Ptet-HPRT were exposed to 1 μM Dox for 7 days (Dox) to induce HPRT silencing. Some cells were also exposed 100 nM TSA (Dox+TSA) or 300 nM 5-Aza-dC (Dox+AzaC) on day 7 of Dox treatment. Control (Untreated) cells were not exposed to Dox, TSA, or 5-Aza-dC. 1×10^5 cells were plated per dish in TG medium and the dishes were stained after 12 days. The dark circles depict clones of cells that survived TG selection (TG resistant cells).
If so, silencing should be prevented by inhibiting histone deacetylation. To test this, experiments in which silencing is induced by exposure to Dox were repeated (see Example 2), but in this case the cells were exposed to TSA for the last 24 hours of Dox exposure.

[4] = tested on: silenced HPRT allele in H3TG3 cells; experiment: Reactivation of silenced HPRT, mRNA by qRT-PCR; conditions: 5 or 15 μM SFN for 24 hours, RNA 24 hours after exposure; compared with 300 nM 5-aza-dC (FIG. 4)
Procedure: Relative levels of HPRT mRNA were determined in H3TG3 cells exposed to 300 nM 5-Aza-dC, 5 μM SFN, or 15 μM SFN for 24 hours. RNA was collected after an additional 24 hours and quantitative real time PCR (qRT-PCR) was used to determine mRNA levels, which were set to 1.0 for untreated cells.
RNA levels instead of reactivation frequencies were used as the endpoint for this experiment.

[5] = tested on: reactivated HPRT in H4-derived clones; experiment: Re-silencing frequency of reactivated Ptet-HPRT clones (TG selection); conditions: overnight 300 nM 5-aza-dC before TG selection (FIG. 15)
Procedure: FIG. 15 is a bar graph showing inactivation frequency of H4-derived clones with silenced and reactivated HPRT expression after overnight treatment with vehicle (Untreated), 300 nM 5-aza-dC (Aza-dC) or 100 nM TSA (TSA) before selecting against HPRT activity with TG. Frequencies represent the fraction of cell colonies surviving after two weeks of TG selection.
A DIF6 derived cell line expressing HPRT under the control of the Ptet system was established as described in Example 1. Gene silencing was induced following repression of HPRT expression in the presence of Dox and spontaneous reactivant cell lines that grew well in AzHx medium were isolated. Re-silencing frequency was measured in the presence of the DNA methylation inhibitor 5-aza-dC or the HDAC inhibitor TSA.

BRCA1-HPRT [6] = experiment: HPRT mRNA in BRCA1-HPRT transfectants exposed to CoCl2; conditions: 50 μM or 100 μM CoCl2 for two weeks (FIG. 10A)
Procedure: FIG. 10A is a bar graph showing HPRT mRNA levels (normalized to GAPDH) in BRCA1-HPRT transfectants exposed to 50 μM or 100 μM CoCl2 for two weeks.
(§2) BRCA1-HPRT and MLH1-HPRT cell lines as described in Example 5 were exposed to CoCl2 for two weeks, followed by selection of TG resistant clones. […] Expression from the MLH1 promoter was also repressed by exposure to CoCl2.

BRCA1-HPRT [7] = experiment: TG resistance frequency of BRCA1-HPRT transfectants exposed to CoCl2; conditions: 50 μM or 100 μM CoCl2 for two weeks, then TG selection (FIG. 10B)
Procedure: FIG. 10B is a bar graph showing TG resistance frequency for BRCA1-HPRT transfectants exposed to 50 μM or 100 μM CoCl2 for two weeks, followed by TG selection.
as §2

[8] = tested on: MLH1 promoter (MLH1-HPRT); experiment: Expression from the MLH1 promoter in MLH1-HPRT cells exposed to CoCl2; conditions: CoCl2 exposure
Description: as §2

Ptet-HPRT [9] = experiment: Induction of silencing via repression of Ptet-HPRT by Dox (TG resistance frequency); conditions: 1 μM Dox 7 days, then TG and puromycin selection without Dox
Procedure: FIG. 2 is a bar graph showing silencing frequency as a function of time of Dox exposure. HPRT 3 cells with Ptet-HPRT were exposed to 1 μM Dox for the times indicated before being released from Dox and selected with 6-thioguanine (TG). TG resistance frequencies are plotted. No TG resistant clones were identified after one or two weeks of growth in medium without Dox. The HPRT 3 cell line was created by inserting the Ptet-HPRT construct and the tet-responsive transcription activator construct into the genome of a mouse cell line termed DIF6.
To determine if gene repression could induce silencing, three cell lines expressing HPRT under control of the Ptet promoter (Ptet-HPRT) were exposed to Dox for 7 days and then selected with TG in the absence of Dox. These cells lines were chosen because 1) each gave few or no spontaneous TG resistant clones and 2) Ptet-HPRT was integrated near the bacterial puromycin (pur) selectable gene, which allowed puromycin selection to be used to prevent deletion of Ptet-HPRT. […] For this experiment, 1×10^6 cells were exposed to 1 μM Dox for 7 days, the Dox was removed from the medium, the cells re-plated in 100 mm dishes at a density of 1×10^5 cells per dish and exposed to TG (5 μg/ml) and puromycin (1.5 μg/ml).

Ptet-HPRT [10] = experiment: HPRT mRNA by qRT-PCR in Ptet-HPRT cells exposed to Dox; conditions: after removal of Dox from the medium
Description: The cell lines described in Example 1 were used to determine if gene silencing can be induced by transient reduction of gene expression. […] In other words, Dox can reduce but not eliminate gene expression. HPRT mRNA was restored to the original levels observed in the absence of Dox within 2 days after Dox was removed from the medium.

`CC(/C=C/C(=O)NO)=C\[C@@H](C)C(=O)c1ccc(N(C)C)cc1` [TSA, trichostatin A] was tested, and the “HPRT expression in the presence of Dox” value (Ptet-HPRT in HPRT3 cells) was “restored a level of HPRT expression”, the “frequency of revertant cells” value [1] was “increased” and the “increase of Aprt mRNA levels as compared to untreated cells” value ([2]; D3S1 cell line) was 8 fold. The “increase of Aprt mRNA levels as compared to untreated cells” value ([2]; D3 cell line) was 1.5 fold, the “Aprt expression / mRNA levels after treatment” value [2] was “no affect” and the “hypoxia-induced silencing of the BRCA1 promoter” value (BRCA1-HPRT in BSH8 cells) was “inhibited hypoxia-induced silencing”. For the same compound, the “TSA-Induced Reversion Frequency” value ([3]; TG cell line BSH8TG22) was 6.9 × 10^−4, the “TSA-Induced Reversion Frequency” value ([3]; TG cell line BSH8TG23) was 1.0 × 10^−4 and the “reversion / reactivation of hypoxia-induced BRCA1-HPRT TG resistant clones” value [3] was “induced revertant cells”. For the same compound, the “induction of cells with silenced HPRT alleles” value (Ptet-HPRT in HPRT9 cells) was “significantly inhibited”.

In the case of `C[S+]([O-])CCCCN=C=S` (centres unmarked) [SFN, sulforaphane], the “reactivation of silenced HPRT allele (RNA levels)” value [4] is reported as “reactivate the silenced HPRT allele in a dose dependent manner, and at levels greater than that for exposure with 5-aza-dC”.

With `Nc1ncn([C@H]2C[C@H](O)[C@@H](CO)O2)c(=O)n1` [5-aza-dC, 5-aza-2′-deoxycytidine] the “frequency of revertant cells” value [1] was “induced revertant cells”, the “Aprt expression after treatment” value ([2]; D3S1 cell line) was “reactivated expression” and the “Aprt expression after treatment” value ([2]; D3 cell line) was “reactivated expression”. The “Aprt expression / mRNA levels after treatment” value [2] was “did not alter expression”, the “hypoxia-induced silencing of the BRCA1 promoter” value (BRCA1-HPRT in BSH8 cells) was “did not inhibit the induction of silencing” and the “reversion / reactivation of hypoxia-induced BRCA1-HPRT TG resistant clones” value [3] was “did not reactivate the silenced clones”. For the same compound, the “induction of cells with silenced HPRT alleles” value (Ptet-HPRT in HPRT9 cells) was “did not inhibit” and the re-silencing frequency [5] was “essentially unchanged”.

With `[Cl][Co][Cl]` [CoCl2, cobalt chloride] the BRCA1-HPRT expression (BRCA1-HPRT [6]) was “repressed in a dose-dependent manner”, the TG-resistant clones (BRCA1-HPRT [7]) was “only arose in BRCA1-HPRT cells exposed to 100 μM CoCl2” and the “Expression from the MLH1 promoter” value [8] was “repressed”.

With `C[C@H]1c2cccc(O)c2C(=O)C2=C(O)[C@]3(O)C(=O)C(C(N)=O)=C(O)[C@@H](N(C)C)[C@@H]3[C@@H](O)[C@@H]21` [Dox, doxycycline] the “Silencing Frequency” value (Ptet-HPRT [9]; HPRT 1 cell line) was 9.4 × 10^−3, the “Silencing Frequency” value (Ptet-HPRT [9]; HPRT 3 cell line) was 2.1 × 10^−4 and the “Silencing Frequency” value (Ptet-HPRT [9]; HPRT 4 cell line) was 1.6 × 10^−4. The “time to restoration of HPRT mRNA to original levels after Dox was removed” value (Ptet-HPRT [10]) was ≤ 2 days.
